Reference: publication PMC6079014, “Calcium is an essential cofactor for metal efflux by the ferroportin transporter family” (Nature Communications, 2018)
Where two headings read alike, the source gives them in different places.

Legend:
[1] = target: wild type BbFpn (Bdellovibrio bacteriovorus, UniProt Q6MLJ0); experiment: biochemical; type: binding, Bdellovibrio bacteriovorous
[2] = target: T1, human Fpn (Homo sapiens, UniProt Q9NP59); experiment: Radiotracer metal efflux assay in Xenopus oocytes expressing human Fpn; type: cell-based; conditions: for Ability of other alkaline-earth metals to substitute for Ca2+ in activating 55Fe efflux: Ca2+-free media, 2 mM Sr or Ba plus 1 mM Mg2+, or 3 mM Mg2+; for Effect on 55Fe efflux of pharmacologically raising the cytosolic Ca2+ concentration: 1 µM ionomycin (IMN) or 2 µM thapsigargin (THG), media with 0.2% DMSO
T1 construct: expressed in transfected cells; host or cells: Xenopus laevis oocytes injected with Fpn RNA
T1 sequence (Q9NP59 1-571): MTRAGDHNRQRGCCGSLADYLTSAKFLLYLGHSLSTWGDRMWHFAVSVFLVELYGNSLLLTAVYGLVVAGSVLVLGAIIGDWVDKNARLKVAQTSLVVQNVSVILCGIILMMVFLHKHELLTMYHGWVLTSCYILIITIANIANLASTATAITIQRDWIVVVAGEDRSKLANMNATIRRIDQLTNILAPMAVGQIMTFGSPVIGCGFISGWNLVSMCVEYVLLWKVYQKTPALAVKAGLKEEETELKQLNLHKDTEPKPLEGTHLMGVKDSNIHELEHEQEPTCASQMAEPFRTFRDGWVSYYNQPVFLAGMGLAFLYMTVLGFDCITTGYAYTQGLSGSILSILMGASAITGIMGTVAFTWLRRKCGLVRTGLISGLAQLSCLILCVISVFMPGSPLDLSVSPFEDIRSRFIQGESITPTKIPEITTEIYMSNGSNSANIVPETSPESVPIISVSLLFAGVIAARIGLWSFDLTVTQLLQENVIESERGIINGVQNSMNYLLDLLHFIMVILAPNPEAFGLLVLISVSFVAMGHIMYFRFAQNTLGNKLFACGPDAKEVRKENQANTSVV
Procedure: We performed laparotomy and ovariectomy on adult female Xenopus laevis frogs (Nasco, Fort Atkinson, WI) under 2-aminoethylbenzoate methanesulfonate anesthesia (0.2%, by immersion, to effect) following a protocol approved by the University of Cincinnati Institutional Animal Care and Use Committee. Ovarian tissue was isolated and treated for 3 h with […] collagenase A (Roche Diagnostics Corp., Indianapolis, IN) in calcium-free-modified Barths’ medium (MBM) of composition 88 mM NaCl, 1 mM KCl, 2.4 mM NaHCO3, 1.57 mM MgSO4, 0.66 mM NaNO3, 10 mM 4-(2-hydroxyethyl)-1-piperazineethanesulfonic acid (HEPES), buffered to pH 7.5 by using 2-amino-2-hydroxymethyl-propane-1,3-diol (Tris base). We isolated defolliculate stage V–VI oocytes stored at 17 °C in MBM of composition 88 mM NaCl, 1 mM KCl, 2.4 mM NaHCO3, 0.82 MgSO4, 0.75 mM CaCl2, 0.66 mM NaNO3, 10 mM HEPES, buffered to pH 7.5 by using Tris base, with 50 mg l^−1 ciprofloxacin. We expressed in Xenopus oocytes the 1A transcript form of human Fpn fused at its C-terminus with the enhanced green fluorescent protein (GFP) as described. Oocytes were injected with ∼50 ng of Fpn RNA and incubated for 4–6 days before being used in functional assays. Control oocytes were noninjected.
We measured metal efflux from oocytes expressing Fpn by using a radiotracer assay. Radiochemicals ^55Fe, ^45Ca, ^57Co, ^65Zn were obtained from Perkin-Elmer Life Science Products (Boston, MA) and ^63Ni from the National Isotope Development Center (Oak Ridge, TN). We used ^55Fe (added as FeCl3) at final specific activity 0.4–2.0 GBq mg^−1, ^45Ca (added as CaCl2) at final specific activity 0.5–0.9 GBq mg^−1, ^57Co (added as CoCl2) at final specific activity 1.6 GBq mg^−1, ^65Zn (added as ZnCl2) at final specific activity 0.2 GBq mg^−1, and ^63Ni (added as NiCl2) at final specific activity 0.6 GBq mg^−1. Oocytes were injected with 50 nl of 5 μM metal radionuclide (*M) in vehicle of composition 250 mM KCl, 5 mM nitrilotriacetic acid, trisodium salt, buffered to pH 7.0 with ∼4 mM 2-(N-morpholino)ethanesulfonic acid (MES) (GFS Chemicals, Columbus, OH). After injection, oocytes were briefly stored in ice-cold MBM (for 1–5 min) prior to the start of the efflux assay.
To initiate the efflux assay, we placed oocytes in standard efflux medium of composition 100 mM NaCl, 1 mM KCl, 2 mM CaCl2, 1 mM MgCl2, 0.5 mM bathophenanthroline disulfonic acid (BPS), 1 mM nitrilotriacetic acid (NTA) trisodium salt, 50 μg/ml apotransferrin (ApoTf) (R&D Systems Inc., Minneapolis, MN), buffered with 0–5 mM MES, and 0–5 mM N′,N′-diethylpiperazine to obtain pH 7.5, with the following exceptions. To prepare Ca^2+-free medium, we replaced 2 mM CaCl2 with 4 mM NaCl and added 1 mM ethylene glycol-bis(2-aminoethyl ether)-N,N,N′,N′-tetraacetic acid (EGTA). To prepare Mg^2+-free medium, we replaced […] MgCl2 with 4 mM NaCl and added 1 mM ethylenediaminetetraacetic acid (EDTA). To measure ^55Fe efflux as a function of extracellular [Ca^2+] over the range 0.1–20 mM Ca^2+ (Figs. 1c, 6b), we adjusted [NaCl] and [CaCl2] on a 2:1 molar basis without the addition of EGTA. Oocytes were then transferred individually in 200 µl of medium to flat-bottomed wells of a 96-well plate and incubated 30 min—within the linear phase of metal efflux[10] —at 23–27 °C with gentle rocking. To terminate efflux, we removed 150 µl of medium (0.75 × [N0–Nt]) from each well for liquid-scintillation counting in Ultima Gold liquid-scintillation cocktail (Perkin-Elmer, Waltham, MA). The corresponding oocytes were rinsed twice in ice-cold medium (without BPS), solubilized with 5% (w/v) sodium dodecyl sulfate, and counted (Nt). We fit our data for oocyte radiotracer content (N) over time (Eq. (1)) and obtained the first-order rate constant (k) for metal radionuclide (*M) efflux for individual oocytes. N0 and Nt are counts per min (cpm) in the oocyte at time = 0 and time = t, respectively.1 Nt=N0⋅exp(-k⋅t) […]

[3] = target: BbFpn Q84E (Bdellovibrio bacteriovorus, UniProt Q6MLJ0, Q84E); experiment: Isothermal titration calorimetry, Q84E BbFpn; type: binding, Bdellovibrio bacteriovorous
[4] = target: BbFpn E203A (Bdellovibrio bacteriovorus, UniProt Q6MLJ0, E203A); experiment: Isothermal titration calorimetry, E203A BbFpn; type: binding, Bdellovibrio bacteriovorous
[5] = target: BbFpn D24A (Bdellovibrio bacteriovorus, UniProt Q6MLJ0, D24A); experiment: Isothermal titration calorimetry, D24A BbFpn; type: binding, Bdellovibrio bacteriovorous
[6] = target: BbFpn N196A (Bdellovibrio bacteriovorus, UniProt Q6MLJ0, N196A); experiment: Isothermal titration calorimetry, N196A BbFpn; type: binding, Bdellovibrio bacteriovorous
[7] = Supplementary Figs. 5 and 9, one experiment

Sequence of wild type BbFpn (Q6MLJ0 whole entry): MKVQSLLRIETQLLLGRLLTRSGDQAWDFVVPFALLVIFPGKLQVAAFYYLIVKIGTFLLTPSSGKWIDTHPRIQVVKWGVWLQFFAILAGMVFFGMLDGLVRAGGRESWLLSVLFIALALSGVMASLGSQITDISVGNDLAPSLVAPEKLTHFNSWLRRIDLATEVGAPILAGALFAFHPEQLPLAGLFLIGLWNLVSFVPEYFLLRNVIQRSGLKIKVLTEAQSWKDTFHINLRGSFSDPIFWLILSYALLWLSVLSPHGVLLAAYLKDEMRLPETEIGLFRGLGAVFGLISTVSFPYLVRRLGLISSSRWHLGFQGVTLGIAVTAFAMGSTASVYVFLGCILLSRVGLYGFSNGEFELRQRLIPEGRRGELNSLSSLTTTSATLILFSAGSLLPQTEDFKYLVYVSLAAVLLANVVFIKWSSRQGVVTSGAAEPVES
Sequence of BbFpn E203A (Q6MLJ0 whole entry E203A): as the sequence (Q6MLJ0 whole entry) above, with E203A counted along it
Sequence of BbFpn D24A (Q6MLJ0 whole entry D24A): as the sequence (Q6MLJ0 whole entry) above, with D24A counted along it
Sequence of BbFpn Q84E (Q6MLJ0 whole entry Q84E): as the sequence (Q6MLJ0 whole entry) above, with Q84E counted along it
Sequence of BbFpn N196A (Q6MLJ0 whole entry N196A): as the sequence (Q6MLJ0 whole entry) above, with N196A counted along it

SMILES: [K+] [K^+]
- Binding to wild type BbFpn by ITC (in words) [1]: no observable binding

SMILES: [Mg+2] [Mg^2+, magnesium]
- Ability of other alkaline-earth metals to substitute for Ca2+ in activating 55Fe efflux [2]: could not
- Binding to wild type BbFpn by ITC (in words) ([1]; same experimental conditions as for Ca2+): no observable binding

SMILES: [Na+] [Na^+]
- Effect of extracellular Na+ replacement with choline on Fpn-mediated 55Fe efflux ([2]; presence or absence of 100 mM extracellular Na+): unaffected

SMILES: [Sr+2] [Sr^2+, strontium]
- Binding to Q84E BbFpn by ITC (in words) [3]: no Ca^2+ or Sr^2+ binding
- Ability of other alkaline-earth metals to substitute for Ca2+ in activating 55Fe efflux [2]: could partially substitute
- Binding to E203A BbFpn by ITC (in words) [4]: complete loss
- Binding to D24A BbFpn by ITC (in words) [5]: complete loss
- Binding to N196A BbFpn by ITC (in words) [6]: complete loss
- Kd ([1]; 20 °C, 20 mM Tris pH 8, 50 mM NaCl, 0.004% LMNG, read-out: Kd (ITC)): 4.6e-05 ± 3.3e-06 M
- -TΔS, ITC [1, 7]: -19.2 kcal/mol
- N (sites), ITC [1, 7]: 0.478 ± 6.1e-2
- ΔG, ITC [1, 7]: -5.83 kcal/mol
- ΔH, ITC [1, 7]: 13.4 ± 1.90 kcal/mol
- Kd ([1]; Supplementary Figs. 5 and 9, one experiment, read-out: KD (M), ITC): 4.57e-05 M

SMILES: [Ba+2] [barium]
- Ability of other alkaline-earth metals to substitute for Ca2+ in activating 55Fe efflux [2]: could not

SMILES: C[C@H](CCC(=O)O)C[C@H](C)C[C@H](C)C(=O)/C=C(\O)[C@H](C)C[C@H](C)C/C=C/[C@@H](C)[C@@H](O)[C@@H](C)[C@@H](O)C[C@@H]1CC[C@@](C)([C@H]2CC[C@@](C)([C@@H](C)O)O2)O1 [ionomycin, reference compound]
- Effect on 55Fe efflux of pharmacologically raising the cytosolic Ca2+ concentration [2]: no effect

SMILES: C/C=C(/C)C(=O)O[C@H]1C(C)=C2[C@H]([C@@H]1OC(=O)CCCCCCC)[C@@](C)(OC(C)=O)C[C@H](OC(=O)CCC)[C@@]1(O)[C@H]2OC(=O)[C@@]1(C)O [thapsigargin, reference compound]
- Effect on 55Fe efflux of pharmacologically raising the cytosolic Ca2+ concentration [2]: no effect
